Experiments:
Type in all cases: biochemical
human full-length GK = molecular target: T1, human full-length GK (Homo sapiens, UniProt P35557); assay: tandem assay with EDTA quench; settings: 12 mM glucose
T1 construct: human full-length GK (15 nM) was incubated with various concentrations of glucose
T1 sequence (P35557 1-466 isoform P35557-2): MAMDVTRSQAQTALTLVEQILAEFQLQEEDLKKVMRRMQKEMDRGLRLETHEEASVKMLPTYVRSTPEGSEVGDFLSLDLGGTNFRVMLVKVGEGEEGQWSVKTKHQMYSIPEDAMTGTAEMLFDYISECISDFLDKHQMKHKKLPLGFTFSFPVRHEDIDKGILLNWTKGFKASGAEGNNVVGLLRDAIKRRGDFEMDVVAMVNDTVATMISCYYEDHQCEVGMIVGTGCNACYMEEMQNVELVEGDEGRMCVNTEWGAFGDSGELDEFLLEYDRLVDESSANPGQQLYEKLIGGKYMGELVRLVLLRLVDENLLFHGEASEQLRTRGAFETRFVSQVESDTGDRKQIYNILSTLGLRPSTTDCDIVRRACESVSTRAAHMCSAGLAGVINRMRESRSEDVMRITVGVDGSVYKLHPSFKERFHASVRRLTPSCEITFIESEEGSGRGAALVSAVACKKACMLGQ
Method: The protocol used is essentially as described above with some variation. Briefly, human full-length GK (15 nM) was incubated with various concentrations of glucose in the range from 0.33 to 50 mM in clear bottom 384 well microtiter plates. To initiate the GK reaction, Mg-ATP (3 mM final concentration) was added to the protein in buffer, under the final buffer conditions of 25 mM HEPES, pH 7.1, containing 1 mM DTT and 5% DMSO. The total reaction volume was 20 μl. The reaction was allowed to proceed for ten minutes and was then quenched with 5 μl EDTA (45 mM final).
The components of the secondary reaction, ThioNAD and G6PDH (final concentrations of 650 μM and 3.33 Units, respectively), were then added together in a volume of 25 μl, and a total volume of 50 μl. Absorbance was read and activation calculated as a percentage of background activity, i.e., GK in the presence of DMSO, with background G6P subtracted. Background G6P was determined by pre-quenching GK with EDTA prior to reaction initiation with ATP.
The tandem assay (EDTA quench) was used to assess the activity of GK in the presence of putative GK activator compounds. The above-described tandem assay protocol was followed using a range of activator compound concentrations from 0 to 100 μM.

human hepatic GK [1] = molecular target: T2, human hepatic GK (Homo sapiens, UniProt P35557); assay: filtration-based assay (direct G-6-P capture by ion-exchange resin); settings: 12 mM glucose, FIG. 7
T2 sequence (P35557 1-466 isoform P35557-2): T1 sequence (P35557 1-466 isoform P35557-2)
Method: Human full-length recombinant GK was used to measure the activation of GK. Human full-length GK (15 nM) was incubated with various concentrations of glucose in the range from 0.33 to 50 mM in the presence of tritiated glucose (3H-glucose [6-^3H], 0.33 μCi) in 96 well microtiter plates. To initiate the GK reaction, Mg-ATP (3 mM final) was added to the protein in buffer, under the final buffer conditions of 25 mM HEPES, pH 7.1, containing 1 mM DTT and 5% DMSO. The total reaction volume was 110 μl. The reaction was allowed to proceed for ten minutes (i.e., the linear portion of the reaction) and was then quenched with 100 mM formic acid (1:1). A 200 μl aliquot of the quenched reaction products was then transferred to wells in a 96-well MultiScreen-GV 96 filtration plate containing 100 μl/well of Bio-rad AG 1-X8 Resin, formate form. The resin was then washed with H2O (1 ml/well), and the GK reaction product (G-6-P) eluted with 1M ammonium formate, pH 5 (200 μl/well). A 50 μl aliquot of this eluate was added to an Optiplate white 96 well plate containing 200 μl of Microscint PS. The plate was sealed and shaken for 5 minutes, and read on a Topcount scintillation counter (Perkin Elmer). The raw counts were converted to product concentration by comparison of the raw counts in the sample wells to wells containing a standard curve having known concentrations of ^3H-glucose-6-phosphate. […]

human hepatic GK [2] = molecular target: T2, human hepatic GK; assay: tandem assay (uncoupled G-6-P detection, heat stop)
Method: Purified human recombinant GK was used to measure the activation of GK activity by glucose and a GK activator (Compound “C”) in the tandem assay. A suitable vehicle (for instance 24% DMSO in pH 7.25 Tris buffer), with or without (control) a GK modulator of interest was incubated with GK (50 μl of a 24 nM stock solution) over a range of concentrations of glucose (for instance from 0.32 to 80 mM) for 30 minutes in a 96-well PCR plate (10 μl). The GK reaction was initiated by addition of Mg-ATP (20 μl). The solution used comprised 12 mM ATP and 16 mM MgCl2. The final assay conditions were 25 mM Tris, pH 7.25, 1 mM DTT and 3% DMSO, 15 nM GK, 3 mM ATP and 4 mM MgCl2. Glucose stock solution (IM) was diluted to generate a dilution series with final glucose concentrations of: 0.2, 0.4, 0.6, 0.8, 1, 1.5, 2, 3, 4, 5, 6, 8, 10, 12, 20 and 50 mM. The total reaction volume per well was about 80 μl.
The GK reaction proceeded for about 10 minutes, and was followed by heating the 96-well plate in a hot water bath (100° C.) for 30 seconds to stop the reaction. […] An aliquot of reaction mixture (typically 50 μl) was then transferred to a second 96 well plate suitable for taking absorbance measurements. […] The reagents and reaction mixture are mixed for 2 minutes, followed by measurement of the absorbance at 405 nm using a plate reader. […]

## CCOP(=O)(Cc1cnc(NC(=O)[C@H](CC2CCCC2)c2ccc(S(C)(=O)=O)cc2)cn1)OCC [Compound A, (R)-diethyl (5-(3-cyclopentyl-2-(4-(methylsulfonyl)phenyl)propanamido)pyrazin-2-yl)methylphosphonate]
Human full-length GK; FIG. 10
  AC50: ~0.904 µM
Human full-length GK; FIG. 10, read-out: maximal activation of background GK activity
  Emax: 208%
Human hepatic GK [1]
  AC50: 7.1 µM
Human hepatic GK [1]; read-out: maximal activation number (above background)
  Emax: 228%
Human hepatic GK [2]; 20 uM activator, control 3% DMSO
  Kcat in the presence of GK activator: 44 S^−1
Human hepatic GK [2]; in the presence of the activator, FIG. 8
  KM compared to the controls: substantially lower
